Experimental data taken from PMC10247784, “Physiological activation of human and mouse bitter taste receptors by bile acids” (Communications Biology, 2023).
“And” between values parts separate entries of the source, which are not always exact repeats. Equal entries are not always repeated.

Target: T1, human TAS2R14 (Homo sapiens, UniProt Q9NYV8)
T1 construct: expressed in transfected cells; host or cells: HEK293T-Gα16gust44
T1 sequence (Q9NYV8 1-317): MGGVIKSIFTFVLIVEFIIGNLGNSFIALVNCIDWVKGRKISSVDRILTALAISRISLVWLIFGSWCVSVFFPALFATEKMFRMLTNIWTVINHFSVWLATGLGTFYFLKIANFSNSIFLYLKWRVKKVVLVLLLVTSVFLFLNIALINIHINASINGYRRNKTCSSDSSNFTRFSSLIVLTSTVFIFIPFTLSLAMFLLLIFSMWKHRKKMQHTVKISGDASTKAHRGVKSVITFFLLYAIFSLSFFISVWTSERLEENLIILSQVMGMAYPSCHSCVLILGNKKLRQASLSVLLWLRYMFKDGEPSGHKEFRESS
Test: Calcium imaging assay (FLIPR), HEK293T-Gα16gust44 cells transfected with human TAS2R14
Format: cell-based
Conditions: for RLU: TAS2R14 trace
Procedure, shortened: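 Calcium responses via FLIPR in receptor-transfected HEK293T-Gα16gust44 cells (Fluo-4-AM, 2.5 mM probenecid), after mock-signal subtraction and normalization to baseline and buffer (ΔF/F). Threshold concentration is the lowest dose differing from mock cells at p < 0.01 (Student's t-test), from three biological replicates in duplicate.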

Efficacy = maximal amplitude (ΔF/F) (TAS2R14, bile acids, mean): 0.2451
Efficacy (maximal amplitude ΔF/F), individual data points (TAS2R14, bile acids, single replicates, listed as GCA): 0.2248 and 0.2913 and 0.2191
Δ F/F (TAS2R14, conc. 0,01 mM): 0.002092
Δ F/F (TAS2R14, conc. 0,1 mM): 0.02639
Δ F/F (TAS2R14, conc. 0,03 mM): 0.01392
Δ F/F (TAS2R14, conc. 0,3 mM): 0.06546
Δ F/F (TAS2R14, conc. 0,001 mM): 0.007446
Δ F/F (TAS2R14, conc. 1 mM): 0.2451
Δ F/F (TAS2R14, conc. 0,003 mM): 0.001619
RLU (Time (s) 0): 0 RLU
RLU (Time (s) 2 (Taurocholic Acid 2.016)): -6.072 RLU
RLU (Time (s) 4 (Taurocholic Acid 4.016)): -9.1 RLU
RLU (Time (s) 6 (Taurocholic Acid 6.016)): -27.0469 RLU
RLU (Time (s) 8 (Taurocholic Acid 8.016)): -30.0405 RLU
RLU (Time (s) 12 (Taurocholic Acid 12.016)): -37.9898 RLU
RLU (Time (s) 14 (Taurocholic Acid 14.016)): -36.9901 RLU
RLU (Time (s) 16 (Taurocholic Acid 16.016)): -51.9041 RLU
RLU (Time (s) 18 (Taurocholic Acid 18.016)): -34 RLU
RLU (Time (s) 18.797 (Chenodeoxycholic Acid 18.765)): -73.9735 RLU
RLU (Time (s) 20.797 (Chenodeoxycholic Acid 20.781)): -100.333 RLU
RLU (Time (s) 22.797 (Chenodeoxycholic Acid 22.781)): -58.0996 RLU
RLU (Time (s) 24.797 (Chenodeoxycholic Acid 24.781)): -11.7946 RLU
RLU (Time (s) 26.797 (Chenodeoxycholic Acid 26.781)): -4.829 RLU
RLU (Time (s) 28.797 (Chenodeoxycholic Acid 28.781)): -12.95 RLU
RLU (Time (s) 30.797 (Chenodeoxycholic Acid 30.781)): 25.2324 RLU
RLU (Time (s) 32.797 (Chenodeoxycholic Acid 32.781)): 58.2752 RLU
RLU (Time (s) 34.797 (Chenodeoxycholic Acid 34.781)): 56.7501 RLU
RLU (Time (s) 36.797 (Chenodeoxycholic Acid 36.781)): 94.7938 RLU
RLU (Time (s) 38.797 (Chenodeoxycholic Acid 38.781)): 109.443 RLU
RLU (Time (s) 40.797 (Chenodeoxycholic Acid 40.781)): 134.729 RLU
RLU (Time (s) 42.797 (Chenodeoxycholic Acid 42.781)): 165.138 RLU
RLU (Time (s) 44.797 (Chenodeoxycholic Acid 44.781)): 223.768 RLU
RLU (Time (s) 46.797 (Chenodeoxycholic Acid 46.781)): 253.169 RLU
RLU (Time (s) 48.797 (Chenodeoxycholic Acid 48.781)): 284.606 RLU
RLU (Time (s) 50.797 (Chenodeoxycholic Acid 50.781)): 322.537 RLU
RLU (Time (s) 52.797 (Chenodeoxycholic Acid 52.781)): 365.455 RLU
RLU (Time (s) 54.797 (Chenodeoxycholic Acid 54.781)): 404.11 RLU
RLU (Time (s) 56.797 (Chenodeoxycholic Acid 56.781)): 424.679 RLU
RLU (Time (s) 58.797 (Chenodeoxycholic Acid 58.781)): 448.405 RLU
RLU (Time (s) 60.797 (Chenodeoxycholic Acid 60.781)): 513.015 RLU
RLU (Time (s) 62.797 (Chenodeoxycholic Acid 62.781)): 520.328 RLU
RLU (Time (s) 64.797 (Chenodeoxycholic Acid 64.781)): 518.587 RLU
RLU (Time (s) 66.797 (Chenodeoxycholic Acid 66.781)): 566.626 RLU
RLU (Time (s) 68.797 (Chenodeoxycholic Acid 68.781)): 571.358 RLU
RLU (Time (s) 70.797 (Chenodeoxycholic Acid 70.781)): 583.853 RLU
RLU (Time (s) 72.797 (Chenodeoxycholic Acid 72.781)): 622.789 RLU
RLU (Time (s) 74.797 (Chenodeoxycholic Acid 74.781)): 701.49 RLU
RLU (Time (s) 76.797 (Chenodeoxycholic Acid 76.781)): 688.581 RLU
RLU (Time (s) 78.797 (Chenodeoxycholic Acid 78.781)): 706.104 RLU
RLU (Time (s) 80.797 (Chenodeoxycholic Acid 80.781)): 737.493 RLU
RLU (Time (s) 82.797 (Chenodeoxycholic Acid 82.781)): 736.745 RLU
RLU (Time (s) 84.797 (Chenodeoxycholic Acid 84.781)): 766.635 RLU
RLU (Time (s) 86.797 (Chenodeoxycholic Acid 86.781)): 784.026 RLU
RLU (Time (s) 88.797 (Chenodeoxycholic Acid 88.781)): 835.93 RLU
RLU (Time (s) 90.797 (Chenodeoxycholic Acid 90.781)): 879.758 RLU
RLU (Time (s) 92.797 (Chenodeoxycholic Acid 92.781)): 905.014 RLU
RLU (Time (s) 94.797 (Chenodeoxycholic Acid 94.781)): 871.313 RLU
RLU (Time (s) 96.797 (Chenodeoxycholic Acid 96.781)): 875.012 RLU
RLU (Time (s) 98.797 (Chenodeoxycholic Acid 98.781)): 900.527 RLU
RLU (Time (s) 100.797 (Chenodeoxycholic Acid 100.781)): 907.622 RLU
RLU (Time (s) 102.797 (Chenodeoxycholic Acid 102.781)): 872.83 RLU
RLU (Time (s) 104.797 (Chenodeoxycholic Acid 104.781)): 919.127 RLU
RLU (Time (s) 106.797 (Chenodeoxycholic Acid 106.781)): 885.988 RLU
RLU (Time (s) 108.797 (Chenodeoxycholic Acid 108.781)): 899.974 RLU
RLU (Time (s) 110.797 (Chenodeoxycholic Acid 110.781)): 929.16 RLU
RLU (Time (s) 112.797 (Chenodeoxycholic Acid 112.781)): 924.683 RLU
RLU (Time (s) 114.797 (Chenodeoxycholic Acid 114.781)): 936.987 RLU
RLU (Time (s) 116.797 (Chenodeoxycholic Acid 116.781)): 927.195 RLU
RLU (Time (s) 118.797 (Chenodeoxycholic Acid 118.781)): 907.689 RLU
RLU (Time (s) 120.797 (Chenodeoxycholic Acid 120.781)): 904.35 RLU
RLU (Time (s) 122.797 (Chenodeoxycholic Acid 122.781)): 945.812 RLU
RLU (Time (s) 124.797 (Chenodeoxycholic Acid 124.781)): 947.759 RLU
RLU (Time (s) 126.797 (Chenodeoxycholic Acid 126.781)): 937.139 RLU
RLU (Time (s) 128.797 (Chenodeoxycholic Acid 128.781)): 931.219 RLU
RLU (Time (s) 130.797 (Chenodeoxycholic Acid 130.781)): 907.598 RLU
RLU (Time (s) 132.797 (Chenodeoxycholic Acid 132.781)): 937.794 RLU
RLU (Time (s) 134.797 (Chenodeoxycholic Acid 134.781)): 944.802 RLU
RLU (Time (s) 136.797 (Chenodeoxycholic Acid 136.781)): 914.908 RLU
RLU (Time (s) 137.562 (Taurocholic Acid 137.563, Chenodeoxycholic Acid 137.546)): 923.636 RLU
RLU (Time (s) 143.578 (Taurocholic Acid 143.563, Chenodeoxycholic Acid 143.546)): 874.438 RLU
RLU (Time (s) 149.578 (Taurocholic Acid 149.563, Chenodeoxycholic Acid 149.546)): 827.247 RLU
RLU (Time (s) 155.578 (Taurocholic Acid 155.563, Chenodeoxycholic Acid 155.546)): 796.558 RLU
RLU (Time (s) 161.578 (Taurocholic Acid 161.563, Chenodeoxycholic Acid 161.546)): 810.447 RLU
RLU (Time (s) 167.578 (Taurocholic Acid 167.563, Chenodeoxycholic Acid 167.546)): 731.625 RLU
RLU (Time (s) 173.578 (Taurocholic Acid 173.563, Chenodeoxycholic Acid 173.546)): 735.471 RLU
RLU (Time (s) 179.578 (Taurocholic Acid 179.563, Chenodeoxycholic Acid 179.546)): 706.541 RLU
RLU (Time (s) 191.578 (Taurocholic Acid 191.563, Chenodeoxycholic Acid 191.546)): 666.973 RLU
RLU (Time (s) 197.578 (Taurocholic Acid 197.563, Chenodeoxycholic Acid 197.546)): 650.688 RLU
RLU (Time (s) 209.578 (Taurocholic Acid 209.563, Chenodeoxycholic Acid 209.546)): 612.527 RLU
RLU (Time (s) 221.578 (Taurocholic Acid 221.563, Chenodeoxycholic Acid 221.546)): 516.97 RLU
RLU (Time (s) 233.578 (Taurocholic Acid 233.563, Chenodeoxycholic Acid 233.546)): 445.674 RLU
RLU (Time (s) 239.578 (Taurocholic Acid 239.563, Chenodeoxycholic Acid 239.546)): 433.467 RLU
RLU (Time (s) 245.578 (Taurocholic Acid 245.563, Chenodeoxycholic Acid 245.546)): 428.616 RLU
RLU (Time (s) 293.578 (Taurocholic Acid 293.563, Chenodeoxycholic Acid 293.546)): 228.532 RLU
RLU (Time (s) 299.578 (Taurocholic Acid 299.563, Chenodeoxycholic Acid 299.546)): 222.955 RLU
RLU (Time (s) 305.578 (Taurocholic Acid 305.563, Chenodeoxycholic Acid 305.546)): 237.423 RLU
RLU (Time (s) 311.578 (Taurocholic Acid 311.563, Chenodeoxycholic Acid 311.546)): 201.505 RLU
RLU (Time (s) 317.578 (Taurocholic Acid 317.563, Chenodeoxycholic Acid 317.546)): 204.947 RLU
RLU (Time (s) 323.578 (Taurocholic Acid 323.563, Chenodeoxycholic Acid 323.546)): 189.257 RLU
RLU (Time (s) 329.578 (Taurocholic Acid 329.563, Chenodeoxycholic Acid 329.546)): 164.774 RLU
RLU (Time (s) 335.578 (Taurocholic Acid 335.563, Chenodeoxycholic Acid 335.546)): 171.566 RLU
RLU (Time (s) 341.578 (Taurocholic Acid 341.563, Chenodeoxycholic Acid 341.546)): 143.607 RLU
RLU (Time (s) 347.578 (Taurocholic Acid 347.563, Chenodeoxycholic Acid 347.546)): 131.554 RLU
RLU (Time (s) 353.578 (Taurocholic Acid 353.563, Chenodeoxycholic Acid 353.546)): 173.027 RLU
RLU (Time (s) 359.578 (Taurocholic Acid 359.563, Chenodeoxycholic Acid 359.546)): 156.135 RLU
Activation threshold concentration TAS2R14 (lowest concentration with significantly increased fluorescence vs empty vector (p < 0.01)): 100 µM
Compound: C[C@H](CCC(=O)NCC(=O)O)[C@H]1CC[C@H]2[C@@H]3[C@H](O)C[C@@H]4C[C@H](O)CC[C@]4(C)[C@H]3C[C@H](O)[C@]12C [Glycocholic Acid, glycocholic acid]
